Experimental data as given in patent US20260200890A1, “ADAR1 INHIBITORS AND METHODS OF USING THE SAME” (AVAMMUNE THERAPEUTICS INC., priority 2022, published 2026).
pEC50: −log10 of the molar value.

biological target: T1, ADAR1 (Homo sapiens, UniProt P55265); assay: ADAR1 Inhibition Assay (IFN fold-induction, Quanti-Luc luminescence, p110 KO A549 dual cells); type: cell-based; conditions: IFN fold-induction vs DMSO, 24 and 48 h
T1 construct: endogenous in cells; host or cells: p110 KO A549 dual cells
T1 sequence (P55265 1-1226): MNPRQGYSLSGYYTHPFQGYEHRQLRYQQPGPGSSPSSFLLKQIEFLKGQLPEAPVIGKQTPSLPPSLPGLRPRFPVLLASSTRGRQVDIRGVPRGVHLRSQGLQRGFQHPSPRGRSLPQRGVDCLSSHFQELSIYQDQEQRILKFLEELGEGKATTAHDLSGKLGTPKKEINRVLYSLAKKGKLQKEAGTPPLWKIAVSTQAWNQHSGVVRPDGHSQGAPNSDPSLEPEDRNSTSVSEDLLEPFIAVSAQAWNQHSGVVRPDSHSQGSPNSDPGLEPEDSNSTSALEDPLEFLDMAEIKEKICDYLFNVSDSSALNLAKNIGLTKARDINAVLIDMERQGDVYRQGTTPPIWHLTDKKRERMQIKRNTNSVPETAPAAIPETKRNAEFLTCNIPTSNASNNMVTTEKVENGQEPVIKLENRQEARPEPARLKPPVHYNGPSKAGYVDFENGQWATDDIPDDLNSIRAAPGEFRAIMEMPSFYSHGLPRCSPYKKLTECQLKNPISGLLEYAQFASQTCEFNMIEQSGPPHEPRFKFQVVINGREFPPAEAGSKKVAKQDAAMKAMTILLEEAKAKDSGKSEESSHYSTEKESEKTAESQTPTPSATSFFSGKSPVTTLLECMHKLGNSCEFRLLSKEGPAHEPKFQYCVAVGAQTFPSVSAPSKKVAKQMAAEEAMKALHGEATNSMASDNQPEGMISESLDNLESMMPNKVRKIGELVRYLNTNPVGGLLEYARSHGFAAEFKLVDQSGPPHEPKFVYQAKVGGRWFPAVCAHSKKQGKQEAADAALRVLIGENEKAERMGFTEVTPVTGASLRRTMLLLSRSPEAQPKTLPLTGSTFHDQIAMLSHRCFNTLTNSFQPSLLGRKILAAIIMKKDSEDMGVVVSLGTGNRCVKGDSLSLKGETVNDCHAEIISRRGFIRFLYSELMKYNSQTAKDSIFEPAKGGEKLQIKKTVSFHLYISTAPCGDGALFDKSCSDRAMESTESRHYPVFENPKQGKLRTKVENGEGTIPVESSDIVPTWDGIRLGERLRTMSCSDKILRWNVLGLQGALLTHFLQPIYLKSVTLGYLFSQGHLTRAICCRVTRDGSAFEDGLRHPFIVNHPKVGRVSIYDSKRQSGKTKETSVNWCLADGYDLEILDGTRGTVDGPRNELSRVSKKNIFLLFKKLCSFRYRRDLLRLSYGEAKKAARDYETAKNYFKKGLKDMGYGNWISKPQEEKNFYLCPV
Procedure: An ADAR1 Inhibition Assay was used to determine the biological activity (EC50) of compounds disclosed herein. 100 μL of p110 KO A549 dual cell suspension in supplemented DMEM (20,000 cells per well) was added into a flat bottom 96 well plate. Next day, post media change, 180 μL of supplemented DMEM was added. 20 μL of test compound or positive control was added to the respective wells (Final concentration of DMSO is 1%). The plate was incubated for 24 and 48 hours at 37° C. in a 5% CO2 incubator. After 24 and 48 h, 20 μL of cell suspension was taken in black well plates and 50 μL of Quanti-Luc was added to each well and luminescence was measured using a microplate reader (Spectra Max). IFN fold-induction was plotted considering DMSO as control using the relative luminescence unit (RLU) values. (Fold induction: Sample RLU/Average DMSO RLU).

`CCOC(=O)c1cc(-c2ccccc2)sc1NC(=O)C1CCCN1C(=O)c1cccc(NS(C)(=O)=O)c1` (centres unmarked) [Compound 109] and `CCOC(=O)c1cc(-c2ccccc2)sc1NC(=O)NNC(=O)c1cccc(NS(C)(=O)=O)c1` [Compound 262] cannot be ordered by pEC50: less than 4.00 for the first, less than 4.00 for the second.

`CCOC(=O)c1cc(-c2ccccc2)sc1NC(=O)NS(=O)(=O)c1cccc(NS(C)(=O)=O)c1` [Compound 275] and `CCOC(=O)c1cc(-c2ccccc2)sc1NC(=O)CCSc1cccc(NS(C)(=O)=O)c1` [Compound 324] cannot be ordered by pEC50: less than 4.00 for the first, less than 4.00 for the second.

`CCOC(=O)c1cc(-c2ccccc2)sc1NC(=O)COC(=O)c1cccc(S(=O)(=O)N2CCOCC2)c1` [Compound 58] and `CCOC(=O)c1cc(-c2ccccc2)sc1NC(=O)COC(=O)c1cccc(NS(=O)(=O)N2CCOCC2)c1` [Compound 136] cannot be ordered by pEC50: less than 4.00 for the first, less than 4.00 for the second.

`CCOC(=O)c1c(-c2ccccc2)csc1NC(=O)COC(=O)c1cccc(S(N)(=O)=O)c1` [Compound 3] and `CCOC(=O)c1cc(-c2ccccc2)sc1NC(=O)COC(=O)c1cccc(S(=O)(=O)N(C)C)c1` [Compound 7] cannot be ordered by pEC50: less than 4.00 for the first, less than 4.00 for the second.

Compared with `CCOC(=O)c1cc(-c2ccccc2)sc1S(=O)(=O)N1CCN(C(=O)c2cccc(NS(C)(=O)=O)c2)CC1` [Compound 309], `CCOC(=O)c1cc(-c2ccccc2)sc1S(=O)(=O)N1CCN(S(C)(=O)=O)CC1` [Compound 307] is lower in pEC50: 4.00 to 4.30 for the first, less than 4.00 for the second. The first is the more potent here.

`CCOC(=O)c1c(NC(=O)COC(=O)c2cccc(NS(C)(=O)=O)c2)sc2ccccc12` [Compound 243] and `CCOC(=O)c1c(-c2ccccc2)noc1NC(=O)COC(=O)c1cccc(NS(C)(=O)=O)c1` [Compound 214] cannot be ordered by pEC50: less than 4.00 for the first, less than 4.00 for the second.

`CCOC(=O)c1cc(-c2ccccc2)sc1NC(=O)Cn1cc(C(=O)Nc2cccc(P(=O)(OCC)OCC)c2)nn1` [Compound 417] and `CCOC(=O)c1cc(-c2ccccc2)sc1NC(=O)[C@@H]1CCCN1C(=O)c1cccc(P(=O)(OCC)OCC)c1` [Compound 393] cannot be ordered by pEC50: less than 4.00 for the first, less than 4.00 for the second.

`CCOC(=O)c1cc(-c2ccccc2)sc1NC(=O)CNc1cccc(S(N)(=O)=O)c1` [Compound 8] and `CCOC(=O)c1cc(-c2ccccc2)sc1NC(=O)CN(C)C(=O)c1cccc(S(N)(=O)=O)c1` [Compound 122] cannot be ordered by pEC50: less than 4.00 for the first, less than 4.00 for the second.

`CCOC(=O)c1c(NC(=O)COC(=O)c2cccc(NS(C)(=O)=O)c2)sc2c1CCN(C)C2` [Compound 104] and `CCOC(=O)c1cc(C)sc1NC(=O)COC(=O)c1cccc(NS(C)(=O)=O)c1` [Compound 204] cannot be ordered by pEC50: less than 4.00 for the first, less than 4.00 for the second.

`CCOC(=O)c1cc(-c2ccccc2)sc1NC(=O)COC(=O)c1ccccc1NS(C)(=O)=O` [Compound 110] and `CCOC(=O)c1cc(-c2ccccc2)sc1NC(=O)COC(=O)Cc1cccc(NS(C)(=O)=O)c1` [Compound 126] cannot be ordered by pEC50: less than 4.00 for the first, less than 4.00 for the second.

`CCOC(=O)c1cc(-c2ccccc2)sc1NC(=O)COC(=O)c1cccc(NS(=O)(=O)CC)c1` [Compound 134] and `CCOC(=O)c1cc(-c2ccccc2)sc1NC(=O)CONC(=O)c1cccc(NS(C)(=O)=O)c1` [Compound 282] cannot be ordered by pEC50: less than 4.00 for the first, less than 4.00 for the second.

`CCOC(=O)c1cc(-c2ccccc2)sc1NC(=O)CN1C(=O)COc2ccc(NS(C)(=O)=O)cc21` [Compound 291] and `CCOC(=O)c1cc(-c2ccccc2)sc1NC(=O)COCc1cccc(NS(C)(=O)=O)c1` [Compound 207] cannot be ordered by pEC50: less than 4.00 for the first, less than 4.00 for the second.

`CCOC(=O)c1ccnc(-c2ccccc2)c1NC(=O)COC(=O)c1cccc(NS(C)(=O)=O)c1` [Compound 375] and `CCOC(=O)c1cc(-c2ccccc2)cnc1NC(=O)COC(=O)c1cccc(NS(C)(=O)=O)c1` [Compound 260] cannot be ordered by pEC50: less than 4.00 for the first, less than 4.00 for the second.

Going from `CCOC(=O)c1cc(-c2ccccc2)sc1NC(=O)c1nnc(-c2cccc(NS(C)(=O)=O)c2)o1` [Compound 219] to `CCOC(=O)c1cc(-c2ccccc2)sc1NC(=O)c1cnc(-c2cccc(NS(C)(=O)=O)c2)s1` [Compound 246], the pEC50 falls from no less than 4.60 to less than 4.00. The first is the more potent here.

Going from `CCOC(=O)c1cc(-c2ccccc2)sc1NC(=O)COC(=O)c1cccc(NS(=O)(=O)c2ccn(C)n2)c1` [Compound 296] to `CCOC(=O)c1cc(-c2ccccc2)sc1NC(=O)COC(=O)c1cccc(NS(=O)(=O)c2ccc(F)cc2)c1` [Compound 93], the pEC50 falls from no less than 4.60 to less than 4.00. The first is the more potent here.

`CCOC(=O)c1cc(-c2ccccc2)sc1-c1coc(/C=N\c2cccc(NS(C)(=O)=O)c2)c1` [Compound 313] and `CS(=O)(=O)Nc1cccc(C(=O)OCCNC(=O)c2cc(-c3ccccc3)sc2N)c1` [Compound 289] cannot be ordered by pEC50: less than 4.00 for the first, less than 4.00 for the second.

`CS(=O)(=O)Nc1cccc(-c2nc3sc(-c4ccccc4)cc3c(=O)[nH]2)c1` [Compound 286] and `CS(=O)(=O)Nc1cccc(C(=O)NNC(=O)c2csc(-c3ccccc3)c2)c1` [Compound 281] cannot be ordered by pEC50: less than 4.00 for the first, less than 4.00 for the second.

`CCOC(=O)c1cc(-c2ccccc2)sc1NC(=O)Cn1cnc2c(N)ncnc21` [Compound 176] and `CCOC(=O)c1cc(-c2ccccc2)sc1NC(=O)Cn1cnc2cnc(NS(C)(=O)=O)nc21` [Compound 225] cannot be ordered by pEC50: less than 4.00 for the first, less than 4.00 for the second.

`CCOC(=O)c1c(NC(=O)COC(=O)c2cccc(NS(C)(=O)=O)c2)sc(-c2ccccc2)c1C(=O)OCC` [Compound 251] and `CCOC(=O)c1cc(-c2ccccc2)sc1NC(=O)COC(=O)c1cccc(C(=O)NS(C)(=O)=O)c1` [Compound 256] cannot be ordered by pEC50: less than 4.00 for the first, less than 4.00 for the second.

`CCOC(=O)c1cc(-c2ccccc2)sc1NC(=O)COC(=O)c1cccc(OP(=O)(N[C@H](C)C(=O)OC(C)C)Oc2ccccc2)c1` (some centres unmarked) [Compound 411] and `CCOC(=O)c1cc(-c2ccccc2)sc1NC(=O)CNC(=O)c1ccc(S(N)(=O)=O)cc1` [Compound 24] cannot be ordered by pEC50: less than 4.00 for the first, less than 4.00 for the second.

`NS(=O)(=O)c1cccc(C(=O)NCC(=O)Nc2nnc(-c3ccccc3)s2)c1` [Compound 49] and `NS(=O)(=O)c1cccc(NC(=O)CNC(=O)c2csc(-c3ccccc3)c2)c1` [Compound 30] cannot be ordered by pEC50: less than 4.00 for the first, less than 4.00 for the second.

`CCOC(=O)c1cccc2nc(NC(=O)COC(=O)c3cccc(NS(C)(=O)=O)c3)sc12` [Compound 236] and `CCOC(=O)c1cc(C2CC2)sc1NC(=O)COC(=O)c1cccc(NS(C)(=O)=O)c1` [Compound 230] cannot be ordered by pEC50: less than 4.00 for the first, less than 4.00 for the second.

`NS(=O)(=O)c1cccc(C(=O)OCC(=O)Nc2ccc(-c3ccccc3)s2)c1` [Compound 78] and `CS(=O)(=O)Nc1cccc(C(=O)OCC(=O)Nc2cc(-c3ccccc3)[nH]n2)c1` [Compound 265] cannot be ordered by pEC50: less than 4.00 for the first, less than 4.00 for the second.

`CS(=O)(=O)Nc1cccc(C(=O)N2CCC(C(=O)Nc3nnc(-c4ccccc4)s3)C2)c1` (centres unmarked) [Compound 173] and `CS(=O)(=O)Nc1cccc(C(=O)OCC(=O)Nc2sc(-c3ccccc3)cc2C(=O)N2CCOCC2)c1` [Compound 123] cannot be ordered by pEC50: less than 4.00 for the first, less than 4.00 for the second.

`CCOC(=O)c1cc(-c2ccccc2)sc1NC(=O)CNC(=O)c1ccc(Br)s1` [Compound 16] and `CCOC(=O)c1cc(-c2ccccc2)sc1NC(=O)CNC(=O)c1ccc(F)c(S(N)(=O)=O)c1` [Compound 31] cannot be ordered by pEC50: less than 4.00 for the first, less than 4.00 for the second.

`CCOC(=O)c1cc(-c2ccccc2)ncc1NC(=O)COC(=O)c1cccc(P(=O)(OCC)OCC)c1` [Compound 381] and `COC(=O)c1scc(-c2ccccc2)c1NC(=O)COC(=O)c1cccc(NS(C)(=O)=O)c1` [Compound 320] cannot be ordered by pEC50: less than 4.00 for the first, less than 4.00 for the second.

`CCOC(=O)c1cc(-c2ccccc2)sc1NC(=O)CNC(=O)Cc1ccc(OS(C)(=O)=O)c(NS(C)(=O)=O)c1` [Compound 368] and `CCOC(=O)c1cc(-c2ccccc2)sc1NC(=O)CN1CCN(c2cccc(NS(C)(=O)=O)c2)CC1` [Compound 280] cannot be ordered by pEC50: less than 4.00 for the first, less than 4.00 for the second.

`COC(=O)c1cc(-c2ccncc2)sc1NC(=O)CNC(=O)c1cccc(S(N)(=O)=O)c1` [Compound 38] and `CCOC(=O)c1cc(-c2cncnc2)sc1NC(=O)COC(=O)c1cccc(NS(N)(=O)=O)c1` [Compound 115] cannot be ordered by pEC50: less than 4.00 for the first, less than 4.00 for the second.
